# Positions of bridges follow the written chain, without caps; N, C: chain ends. Residues, ends and D or L forms follow the SMILES beside them.
# Tested on: C57Bl/6J female mice
# Test: Complete blood count
# Assay type: in vivo, mouse
# Procedure: To test potential toxic effects of MM54 and MM193 in vivo, mice were administered 2 mg/kg of MM54, MM193 or vehicle bi-weekly for 4 weeks. At sacrifice, blood was taken for analysis and the heart, kidney, aorta and liver removed, weighed and fixed for histological analysis. For the glycaemic study, animals were starved for 6 h prior to sacrifice.
# Total blood count DMSO MM54
# Red blood cells (M/µl) 6,8 ± 0,9 7,5 ± 0,3
# Mean corpuscular volume (fl) 46,4 ± 0,2 47,2 ± 0,4
# Mean corpuscular haemoglobin (pg) 13,0 ± 0,0 13,2 ± 0,2
# Mean corpuscular haemoglobin concentration (g/dl) 27,9 ± 0,1 27,9 ± 0,3 Red cell distribution width (%) 15,7 ± 0,2 16,1 ± 0,1
# Table S5. Blood analysis after MM54 treatment
# In order to test potential toxic effects of MM54 in vivo, C57Bl/6J female mice were administered 2 mg/kg of MM54 or DMSO vehicle, bi-weekly for 4 weeks. At sacrifice, blood was taken for analysis and the heart, kidney, aorta and liver removed, weighed and fixed for histological analysis (as shown in Figure S4). n=4 mice/group, 63 mean±SEM.
# [1] = MM54 2 mg/kg bi-weekly, 4 weeks, female C57Bl/6J mice, n=4, mean±SEM
smiles,measurement,setting,value
"CC(C)C[C@@H]1NC(=O)[C@H](CCCNC(=N)N)NC(=O)[C@@H]2CCCN2C(=O)[C@H](CCCNC(=N)N)NC(=O)[C@@H](NC(=O)[C@H](Cc2c[nH]cn2)NC(=O)[C@H](CCCCN)NC(=O)[C@@H]2CSSC[C@H](N)C(=O)N[C@@H](CCCNC(=N)N)C(=O)N3CCC[C@H]3C(=O)N[C@@H](CCCNC(=N)N)C(=O)N[C@@H](CC(C)C)C(=O)N2)CSSC[C@@H](C(=O)O)NC1=O [MM54, cyclo(1–6)CRPRLC-KH-cyclo(9–14)CRPRLC] (H-CRPRLCKHCRPRLC-OH; disulfide 1-6, 9-14)",complete blood count vs vehicle,"MM54 2 mg/kg bi-weekly for 4 weeks, healthy animals",no significant differences
same,Basophils,[1],"0,19 ± 0,12 K/µl"
same,Eosinophils,[1],"0,52 ± 0,28 K/µl"
same,Haemoglobin,[1],"9,9 ± 0,6 g/dl"
same,Hematocrit,[1],"35,4 ± 1,9%"
same,Lymphocytes,[1],"7,50 ± 0,51 K/µl"
same,Mean corpuscular haemoglobin,[1],"13,2 ± 0,2 pg"
same,Mean corpuscular haemoglobin concentration,[1],"27,9 ± 0,3 g/dl"
same,Mean corpuscular volume,[1],"47,2 ± 0,4 fl"
same,Mean platelet volume,[1],"4,45 ± 0,16 fl"
same,Monocytes,[1],"0,42 ± 0,11 K/µl"
same,Neutrophils,[1],"2,56 ± 0,66 K/µl"
same,Platelet,[1],301 ± 27 K/µl
same,Red blood cells,[1],"7,5 ± 0,3 M/µl"
same,Red cell distribution width,[1],"16,1 ± 0,1%"

# From PMC5841205, “Pharmacological targeting of apelin impairs glioblastoma growth” (Brain, 2017)
